Results: US8653257B2, “Dibenzothiazepine derivatives and uses thereof—424” (Astrazeneca AB, priority 2008, dated 2014)

Key:
dopamine D2s receptor = dopamine D2s receptor (Homo sapiens (Human), UniProt P14416); assay: D2 antagonist GTPγS functional assay; type: biochemical; conditions: antagonist mode
Protocol: In vitro experimental assays can generally be carried out as described herein. Briefly, CHO-K1 cells stably transfected with the dopamine D2s receptor can be used in the experiments and maintained in Ham's F12 culture medium supplemented with 2 mM L-glutamine, 10% FBS, and 500 μg/ml Hygromycin.
GTPgS assay can be performed substantially as described by Lazareno, Methods in Molecular Biology, 1999, 106, 231-245. Antagonist activity of compounds can be determined by the ability of test compounds to block dopamine-stimulated [^35S]-GTPγS binding to cell membranes from D2s stably-transfected CHO cells.

[1] = test system: D-Amphetamine-induced Hyperlocomotor Activity; assay: D-Amphetamine-induced hyperlocomotor activity (LMA) in habituated rat model; type: in vivo, male Long Evans rats; conditions: 30 mg/kg and 60 mg/kg (sc)
Protocol: Studies in vivo can be used to determine the antipsychotic effect and are generally carried out as follows. Briefly, D-Amphetamine-induced Hyperlocomotor Activity (LMA) in a Habituated Rat Model can be assessed in male Long Evans rats using a paradigm that includes a habituation phase followed by administration of 1 mg/kg D-amphetamine. Animals can be allowed to acclimatize to the testing room for 1 hour before being weighed and placed into activity chambers. Thirty minutes after LMA measurement is begun, animals can be briefly removed, dosed via the sub-cutaneous route (s.c.) with vehicle or test drug at different doses and returned to the chambers. After a further 30 minutes, animals can again be removed and dosed with vehicle or D-amphetamine at 1 mg/kg (s.c.). After returning the animals to the activity chambers, LMA can be assessed for a further 60 minutes. Haloperidol (0.1 mg/kg dissolved in H2O) can be administered 15 minutes prior to D-amphetamine via the s.c. route. Statistical analysis can be made of total distance traveled after D-amphetamine administration using ANOVA and Tukey's post hoc analysis where appropriate. All values can be expressed as Mean and SD.

[2] = test system: Conditioned Avoidance Responding; assay: Conditioned avoidance responding (CAR) assay; type: in vivo, Male Long-Evans rats; conditions: 30 mg/kg and 60 mg/kg (sc), rat
Protocol: Male Long-Evans rats can be trained to traverse to the opposite side of a standard shuttle cage following presentation of an auditory and visual stimulus to avoid delivery of electric shock to the floor of the cage. Daily sessions can consist of up to 80 trials. If a shock is delivered, animals have the opportunity to escape the shock by traversing to the opposite side of the cage. Drug can be administered (via s.c. or p.o. route) 60 minutes prior to testing and the percentage of trials in which shock is avoided and escaped can be recorded.

H1 receptor = H1 receptor (Homo sapiens (Human), UniProt P35367); assay: H1 receptor binding; parameters: species or system Hu; conditions: one average result
Sequence of H1 receptor (P35367 whole entry): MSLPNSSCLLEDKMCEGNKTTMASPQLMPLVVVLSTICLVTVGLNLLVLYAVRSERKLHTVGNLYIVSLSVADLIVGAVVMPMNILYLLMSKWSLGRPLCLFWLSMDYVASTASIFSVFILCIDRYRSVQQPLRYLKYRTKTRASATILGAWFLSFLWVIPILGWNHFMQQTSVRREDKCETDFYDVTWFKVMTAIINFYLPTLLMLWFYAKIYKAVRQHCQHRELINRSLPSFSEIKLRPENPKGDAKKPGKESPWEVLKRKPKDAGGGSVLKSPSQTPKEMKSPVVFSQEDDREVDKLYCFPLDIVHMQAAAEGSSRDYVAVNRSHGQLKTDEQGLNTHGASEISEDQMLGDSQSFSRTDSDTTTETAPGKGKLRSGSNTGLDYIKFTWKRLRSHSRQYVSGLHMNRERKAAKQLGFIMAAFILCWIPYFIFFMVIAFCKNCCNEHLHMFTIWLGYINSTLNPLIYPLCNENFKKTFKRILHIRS
Description: The H1 receptor binding method can be carried out in accordance with De Backer et al., Biochem. Biophys. Res. Commun., 1993, 197(3), 1601.

Sequence of dopamine D2s receptor (P14416 other isoform, or with tags, fused parts or gaps): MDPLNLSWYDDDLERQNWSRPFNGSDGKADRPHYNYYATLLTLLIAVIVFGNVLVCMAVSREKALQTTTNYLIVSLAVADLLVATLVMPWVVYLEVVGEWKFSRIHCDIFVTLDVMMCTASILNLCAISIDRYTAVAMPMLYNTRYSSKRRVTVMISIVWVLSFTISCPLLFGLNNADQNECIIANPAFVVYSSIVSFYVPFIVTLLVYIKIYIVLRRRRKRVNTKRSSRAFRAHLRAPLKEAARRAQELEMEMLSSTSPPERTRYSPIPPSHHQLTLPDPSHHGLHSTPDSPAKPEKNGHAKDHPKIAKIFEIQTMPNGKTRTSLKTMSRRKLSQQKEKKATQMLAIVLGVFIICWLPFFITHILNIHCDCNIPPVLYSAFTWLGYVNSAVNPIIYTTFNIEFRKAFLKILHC

Row | SMILES | D2 Ant GTPγS Top Effect (dopamine D2s receptor) | activity in D-amphetamine-induced hyperlocomotor activity [1] | activity in conditioned avoidance responding [2] | Ki (H1 receptor)
1 | CN1CCN(C2=Nc3ccccc3Sc3ccc(Cl)cc32)CC1 [2-Chloro-11-(4-methyl-piperazin-1-yl)-dibenzo[b,f][1,4]thiazepine] | 100 | – | – | –
2 | Clc1ccc2c(c1)C(N1CCNCC1)=Nc1ccccc1S2 [2-Chloro-11-piperazin-1-yl-dibenzo[b,f][1,4]thiazepine] | 100 | – | – | –
3 | CN1CCN(C2=Nc3ccccc3Sc3ccc(F)cc32)CC1 [2-Fluoro-11-(4-methyl-piperazin-1-yl)-dibenzo[b,f][1,4]thiazepine] | 100 | – | – | –
4 | c1ccc2c(c1)N=C(N1CCNCC1)c1ccccc1S2 [11-Piperazin-1-yl-dibenzo[b,f][1,4]thiazepine] | 89 | – | – | –
5 | Fc1ccc2c(c1)C(N1CCNCC1)=Nc1ccccc1S2 [Example 1, 2-fluoro-11-(piperazin-1-yl)dibenzo[b,f][1,4]thiazepine] | 97 | showed activity | showed activity | ~7.1 nM
